The record followed here is patent US10137103B2, “Compositions and methods for the treatment of fatty acid metabolism disorders” (The Children's Hospital of Philadelphia, priority 2015, dated 2018).

Numbering of substitutions follows the chain as printed.

One assay deals with ob/ob mice. Briefly: Liver and serum triglycerides and liver histology in ob/ob mice. The format is in vivo, mouse. From the text:
Formalin-fixed liver sections were stained with Trichrome Stain Kit (Sigma) according to the manufacturer's instructions. Triglycerides were extracted from liver according to the Folch method (Folch et al. (1957) J. Biol. Chem., 226:497-509). Serum and liver triglyceride concentrations were quantified with a triglyceride quantification kit following the manufacturer's instructions (Abcam). Leptin-deficient mice develop liver steatosis spontaneously under normal chow diet starting at 4 to 5 weeks of life that is characterized by a diminished rate of palmitate oxidation and accumulation of fat droplets in the form of triglycerides within the hepatocytes (Brix et al. (2002) Mol. Genet. Metab., 75:219-226; de Oliveira et al. (2008) J. Am. Coll. Nutr., 27:299-305). […] This significant reduction in the rate of palmitoyl-CoA oxidation indicated a deficiency in mitochondrial β-oxidation of fatty acids. […] GSNO was used to deliver nitric oxide equivalents because of the extensive use of this pharmacological agent in cellular models to modify proteins by S-nitrosylation despite limited cellular permeability (Hara et al. (2005) Nat. Cell Biol., 7:665-674; Chung et al. (2004) Science 304:1328-1331). […] Moreover, the restoration of palmitoyl-CoA oxidation in GSNO-injected ob/ob mice was associated with a significant reduction of the concentration of liver triglycerides.

Assay [1] deals with T1, VLCAD (Mus musculus, UniProt P50544).
T1 sequence (P50544 42-656): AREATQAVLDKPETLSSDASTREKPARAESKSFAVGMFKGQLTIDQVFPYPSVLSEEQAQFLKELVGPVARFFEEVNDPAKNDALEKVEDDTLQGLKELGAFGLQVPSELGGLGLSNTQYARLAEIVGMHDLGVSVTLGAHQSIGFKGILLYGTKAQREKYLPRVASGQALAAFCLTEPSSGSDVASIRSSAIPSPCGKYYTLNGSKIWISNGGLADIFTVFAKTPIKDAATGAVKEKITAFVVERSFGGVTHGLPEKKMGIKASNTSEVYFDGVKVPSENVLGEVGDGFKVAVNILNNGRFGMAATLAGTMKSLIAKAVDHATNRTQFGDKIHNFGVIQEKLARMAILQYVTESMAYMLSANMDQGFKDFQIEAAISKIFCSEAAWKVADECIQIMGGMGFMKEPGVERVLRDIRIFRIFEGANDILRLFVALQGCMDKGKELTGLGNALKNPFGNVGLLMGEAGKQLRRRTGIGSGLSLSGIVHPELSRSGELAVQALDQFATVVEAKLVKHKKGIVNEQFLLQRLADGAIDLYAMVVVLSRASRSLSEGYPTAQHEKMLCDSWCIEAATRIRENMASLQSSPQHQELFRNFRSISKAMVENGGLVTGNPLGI
Briefly: Fraction of S-nitrosylated VLCAD in liver of ob/ob mice (organomercury resin capture). The settings on record: treated ob/ob mice. The format is in vivo. An excerpt:
These findings confirm the MS/MS analysis showing S-nitrosylation of VLCAD in wild-type and GSNO-treated mouse liver but not in PBS-treated ob/ob mouse liver (FIG. 3C). […] This substantial increase in catalytic efficiency can provide efficient removal of fatty acids in ob/ob mouse liver.

A further assay deals with T2, wild-type VLCAD (Mus musculus, UniProt P50544).
T2 construct: 3xFLAG (C); host or cells: Hepa 1 to 6 cells (mouse hepatocytes)
T2 sequence (P50544 42-656): T1 sequence (P50544 42-656)
The experiment in a line: Hepa 1 to 6 cells expressing FLAG-tagged wild-type VLCAD. In kind it is cell-based. The settings on record: 250 mM GSNO for 30 minutes. The method, then: Hepa 1 to 6 cells were grown in Dulbecco's modified Eagle's medium (DMEM) containing 10% fetal bovine serum, 2 mM glutamine, penicillin (100 U/ml), and streptomycin ([…]) at 37° C. in air with 5% CO2. Cells were plated at a density of 5×10^4 cells/cm^2 and cultured under normal conditions for 24 hours. Cells were transfected with FLAG®-tagged wild-type VLCAD or FLAG®-tagged C238A VLCAD with Lipofectamine® 2000 reagent (Life Technologies) according to the protocol provided by the manufacturer. Forty-eight hours after transfection, the growth medium was replaced with serum-free DMEM, and […] freshly prepared GSNO was added for 30 minutes, after which the cells were extensively washed with PBS. Cell lysates were obtained immediately or 60, 120, and 240 minutes after the removal of GSNO. The samples were protected from UV light exposure. Lysates were assayed for protein concentration, and equal amounts of protein per sample were used for organic mercury-assisted capture.
Additional evidence for the functional consequences of S-nitrosylation of VLCAD was obtained in mouse hepatocytes transiently expressing wild-type VLCAD or a point mutant that could not be S-nitrosylated (C238A). […] Upon removal of GSNO from the media and extensive washing, both the abundance of S-nitrosylated VLCAD and the enzymatic-specific activity declined over time (FIGS. 4A and 4B).

The target of another assay is T3, C238A VLCAD mutant (Mus musculus, UniProt P50544, C238A).
T3 construct: 3xFLAG (C); mutant made in house by QuikChange) Ex-Mm01013-M14; host or cells: Hepa 1 to 6 cells (mouse hepatocytes)
T3 sequence (P50544 42-656 C238A): T1 sequence (P50544 42-656) with C197A
The experiment in a line: Hepa 1 to 6 cells expressing FLAG-tagged C238A VLCAD. The format is cell-based. Particulars: same experimental conditions. An excerpt:
The QuikChange® Lightning Site-Directed Mutagenesis Kit (Agilent Technologies) was used to introduce single amino acid mutations in complementary DNA encoding VLCAD. A cysteine-to-alanine mutant at amino acid position 238 was generated with Ex-Mm01013-M14 (hereinafter referred to as pVLCAD-3×FLAG®), a plasmid encoding mouse VLCAD fused to three FLAG® tags in the C-terminal region of the protein (GeneCopoeia), as a template. The forward primer 5′-[…]-3′ (SEQ ID NO: 1) and the reverse primer 5′-[…] […]-3′ (SEQ ID NO: 2) were used to substitute an alanine codon for a cysteine codon in pVLCAD-3×FLAG®, thereby generating pVLCAD-C238A-3×FLAG®. The sequence of both pVLCAD-3×FLAG® and pVLCAD-C238A-3×FLAG® was verified before use in subsequent experiments.
Hepa 1 to 6 cells were grown in Dulbecco's modified Eagle's medium (DMEM) containing 10% fetal bovine serum, 2 mM glutamine, penicillin (100 U/ml), and streptomycin ([…]) at 37° C. in air with 5% CO2. Cells were plated at a density of 5×10^4 cells/cm^2 and cultured under normal conditions for 24 hours. Cells were transfected with FLAG®-tagged wild-type VLCAD or FLAG®-tagged C238A VLCAD with Lipofectamine® 2000 reagent (Life Technologies) according to the protocol provided by the manufacturer. […]

Assay [2] addresses T1, VLCAD. Particulars: liver homogenates.
In assay [3] the target is T1, VLCAD.

Turning to `N[C@@H](CCC(=O)N[C@@H](CSN=O)C(=O)NCC(=O)O)C(=O)O` [GSNO, S-nitrosoglutathione], in the assay with ob/ob mice (vs PBS-injected), the “fat deposits in liver slices (histology)” value is given as “fewer fat deposits” and the liver triglyceride concentration result is reported as “significantly lowered”. Also, the serum triglyceride concentrations entry with ob/ob mice (vs wild-type and PBS-treated) is listed as “similar”. Moreover, the “fraction of VLCAD molecules in liver S-nitrosylated” value at VLCAD [1] was 25±3%. Further, on wild-type VLCAD, the “S-nitrosylated fraction of wild-type VLCAD” value was determined as 27±3% and the VLCAD-specific activity entry is “fivefold increase”. Moreover, at C238A VLCAD mutant, the “S-nitrosylation of C238A VLCAD” value is recorded as “not S-nitrosylated” and the “basal activity of C238A VLCAD” value is listed as “did not change”. For the same compound, the “apparent KM of PBS-injected ob/ob mice relative to GSNO-injected ob/ob mice” value on VLCAD [2] is listed as “more than fivefold higher”. Also, on VLCAD [2] (vs wild-type and PBS-injected ob/ob mice), the “Vmax of VLCAD” value is “similar”. At VLCAD [3] (eNOS-/- liver homogenates treated ex vivo), the “S-nitrosylation of VLCAD” value is “readily modified ex vivo at cysteine residue Cys238”. Also, on VLCAD [3] (eNOS-/- liver homogenates treated ex vivo (5 μM, 30 minutes)), the “KM for VLCAD enzymatic activity vs untreated homogenate” value was “increased five-fold”.
